{"source": "patent US20040138160A1", "about": "“Preventive/therapeutic method for cancer” (priority 2001, published 2004)", "key": {"HER2": {"molecular_target": "HER2 (Homo sapiens, UniProt P04626)", "sequence (P04626 23-1255)": "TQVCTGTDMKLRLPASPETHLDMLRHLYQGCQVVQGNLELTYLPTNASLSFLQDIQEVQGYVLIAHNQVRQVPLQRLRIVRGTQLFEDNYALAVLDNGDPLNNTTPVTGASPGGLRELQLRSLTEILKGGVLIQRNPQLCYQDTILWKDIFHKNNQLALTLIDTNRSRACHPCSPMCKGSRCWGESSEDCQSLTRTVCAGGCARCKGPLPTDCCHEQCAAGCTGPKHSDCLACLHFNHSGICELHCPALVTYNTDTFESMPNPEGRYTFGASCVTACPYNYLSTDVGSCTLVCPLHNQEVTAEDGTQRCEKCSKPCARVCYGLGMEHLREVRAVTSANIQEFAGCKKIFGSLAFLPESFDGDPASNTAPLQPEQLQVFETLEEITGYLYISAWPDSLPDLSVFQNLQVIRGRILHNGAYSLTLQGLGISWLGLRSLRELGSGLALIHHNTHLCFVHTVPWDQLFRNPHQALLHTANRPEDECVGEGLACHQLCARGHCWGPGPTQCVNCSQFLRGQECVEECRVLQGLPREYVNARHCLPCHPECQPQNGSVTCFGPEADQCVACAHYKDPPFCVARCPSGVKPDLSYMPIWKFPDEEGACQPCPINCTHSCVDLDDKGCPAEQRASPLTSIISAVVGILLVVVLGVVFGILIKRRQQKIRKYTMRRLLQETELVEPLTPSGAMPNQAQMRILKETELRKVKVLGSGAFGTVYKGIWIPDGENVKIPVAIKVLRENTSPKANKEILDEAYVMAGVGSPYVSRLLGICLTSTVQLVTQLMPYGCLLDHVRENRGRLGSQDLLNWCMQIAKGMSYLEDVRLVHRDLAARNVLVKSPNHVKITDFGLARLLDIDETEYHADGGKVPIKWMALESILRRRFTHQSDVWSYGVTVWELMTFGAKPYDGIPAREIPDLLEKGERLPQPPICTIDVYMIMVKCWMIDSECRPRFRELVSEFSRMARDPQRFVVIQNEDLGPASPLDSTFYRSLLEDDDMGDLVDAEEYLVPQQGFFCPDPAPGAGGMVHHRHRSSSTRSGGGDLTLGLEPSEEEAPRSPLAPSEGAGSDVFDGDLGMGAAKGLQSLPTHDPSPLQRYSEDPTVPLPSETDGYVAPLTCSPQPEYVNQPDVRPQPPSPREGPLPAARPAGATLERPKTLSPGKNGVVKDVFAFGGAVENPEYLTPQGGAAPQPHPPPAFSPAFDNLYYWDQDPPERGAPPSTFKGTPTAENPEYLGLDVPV", "conditions": "BT-474 tumor in nude mice; 20 mg/kg/day orally 14 days, then 10 mg/kg; tumor sampled four hours later", "procedure": "Four hours later, the tumor was sampled and a tumor homogenate was prepared."}, "Jak1": {"molecular_target": "Jak1 (Homo sapiens, UniProt P23458)", "sequence (P23458 whole entry)": "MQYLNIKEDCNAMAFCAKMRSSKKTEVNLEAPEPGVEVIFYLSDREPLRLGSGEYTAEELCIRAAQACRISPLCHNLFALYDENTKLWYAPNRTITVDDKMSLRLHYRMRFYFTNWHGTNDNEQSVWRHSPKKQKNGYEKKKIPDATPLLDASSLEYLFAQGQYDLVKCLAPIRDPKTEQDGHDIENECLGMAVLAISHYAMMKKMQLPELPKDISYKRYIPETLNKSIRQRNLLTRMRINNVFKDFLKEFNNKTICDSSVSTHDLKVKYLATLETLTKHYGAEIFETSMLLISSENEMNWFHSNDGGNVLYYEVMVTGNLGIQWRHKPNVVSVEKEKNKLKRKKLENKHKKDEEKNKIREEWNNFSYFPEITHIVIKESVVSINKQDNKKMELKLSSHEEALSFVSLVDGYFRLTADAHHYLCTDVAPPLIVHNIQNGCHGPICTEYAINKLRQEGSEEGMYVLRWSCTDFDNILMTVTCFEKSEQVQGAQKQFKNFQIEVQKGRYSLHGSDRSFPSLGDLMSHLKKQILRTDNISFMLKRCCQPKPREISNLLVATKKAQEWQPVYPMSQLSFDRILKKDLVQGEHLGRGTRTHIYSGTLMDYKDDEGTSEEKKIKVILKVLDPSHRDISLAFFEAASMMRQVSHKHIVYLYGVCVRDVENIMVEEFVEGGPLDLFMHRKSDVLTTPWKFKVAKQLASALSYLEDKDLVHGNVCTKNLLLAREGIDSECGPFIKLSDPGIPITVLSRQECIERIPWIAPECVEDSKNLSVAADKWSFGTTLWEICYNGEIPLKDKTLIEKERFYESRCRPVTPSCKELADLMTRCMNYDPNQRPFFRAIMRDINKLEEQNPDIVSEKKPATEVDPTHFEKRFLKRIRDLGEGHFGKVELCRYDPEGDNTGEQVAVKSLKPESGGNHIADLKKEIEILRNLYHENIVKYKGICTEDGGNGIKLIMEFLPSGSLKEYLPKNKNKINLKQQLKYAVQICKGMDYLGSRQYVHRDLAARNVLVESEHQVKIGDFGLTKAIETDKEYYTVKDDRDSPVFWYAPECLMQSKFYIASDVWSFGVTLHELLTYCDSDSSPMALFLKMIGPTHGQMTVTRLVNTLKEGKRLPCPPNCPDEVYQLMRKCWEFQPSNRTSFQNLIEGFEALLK", "test": "cell-based", "procedure": "(§1) For consideration of the action on a receptor-type tyrosine kinase, A-431 cells or NIH3T3 cells were sown in a 24 multi-well plate (2×10^5 cells/well) and cultured overnight in a carbon dioxide gas incubator (5% CO2, 37° C.). The medium was changed to a serum-free medium and the cells were further incubated for one day. […] The culture medium was removed 5 min later and SDS sample buffer was added to give a cell lysate (200 μL). For consideration of the action on a non-receptor type tyrosine kinase, A431 (Jak1), Jurkat (Src) or Namalwa cells (Blk) were sown in a 6-well multi-well plate (5×10^5 cells/well) and cultured overnight in a carbon dioxide gas incubator (5% CO2, 37° C.)."}, "EGFR": {"molecular_target": "EGFR (Homo sapiens, UniProt P00533)", "sequence (P00533 25-1210)": "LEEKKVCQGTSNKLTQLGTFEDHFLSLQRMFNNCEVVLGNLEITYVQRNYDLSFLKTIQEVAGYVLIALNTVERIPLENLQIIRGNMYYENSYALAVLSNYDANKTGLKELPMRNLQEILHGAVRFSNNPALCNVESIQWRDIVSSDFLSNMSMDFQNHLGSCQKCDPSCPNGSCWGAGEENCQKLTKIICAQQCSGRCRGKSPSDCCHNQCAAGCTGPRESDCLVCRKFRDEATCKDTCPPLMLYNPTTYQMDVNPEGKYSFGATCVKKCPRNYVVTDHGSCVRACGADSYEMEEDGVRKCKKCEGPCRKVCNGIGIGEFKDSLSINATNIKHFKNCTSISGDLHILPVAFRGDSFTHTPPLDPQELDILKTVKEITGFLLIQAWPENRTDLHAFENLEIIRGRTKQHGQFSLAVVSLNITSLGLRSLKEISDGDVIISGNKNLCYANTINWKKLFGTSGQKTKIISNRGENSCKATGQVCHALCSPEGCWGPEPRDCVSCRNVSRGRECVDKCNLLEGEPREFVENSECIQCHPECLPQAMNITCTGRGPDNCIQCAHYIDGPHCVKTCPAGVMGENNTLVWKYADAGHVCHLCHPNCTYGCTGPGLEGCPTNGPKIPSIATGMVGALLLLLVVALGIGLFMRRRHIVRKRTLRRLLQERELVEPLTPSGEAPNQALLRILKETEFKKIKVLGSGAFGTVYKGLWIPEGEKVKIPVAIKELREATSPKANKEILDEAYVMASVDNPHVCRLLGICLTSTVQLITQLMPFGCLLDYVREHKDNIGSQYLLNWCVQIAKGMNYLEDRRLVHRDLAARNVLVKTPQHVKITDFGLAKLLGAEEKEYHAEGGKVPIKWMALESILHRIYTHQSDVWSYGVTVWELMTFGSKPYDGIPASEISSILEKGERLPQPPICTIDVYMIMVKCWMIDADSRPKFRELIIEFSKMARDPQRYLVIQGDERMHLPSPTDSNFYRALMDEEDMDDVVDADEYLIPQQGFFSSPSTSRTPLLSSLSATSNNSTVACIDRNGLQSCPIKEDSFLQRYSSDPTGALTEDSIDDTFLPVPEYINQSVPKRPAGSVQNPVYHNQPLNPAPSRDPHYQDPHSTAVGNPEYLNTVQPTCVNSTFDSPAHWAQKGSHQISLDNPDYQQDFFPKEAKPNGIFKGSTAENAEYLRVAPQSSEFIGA", "test": "cell-based", "procedure": "as §1"}, "blk": {"molecular_target": "blk (Homo sapiens, UniProt P51451)", "sequence (P51451 whole entry)": "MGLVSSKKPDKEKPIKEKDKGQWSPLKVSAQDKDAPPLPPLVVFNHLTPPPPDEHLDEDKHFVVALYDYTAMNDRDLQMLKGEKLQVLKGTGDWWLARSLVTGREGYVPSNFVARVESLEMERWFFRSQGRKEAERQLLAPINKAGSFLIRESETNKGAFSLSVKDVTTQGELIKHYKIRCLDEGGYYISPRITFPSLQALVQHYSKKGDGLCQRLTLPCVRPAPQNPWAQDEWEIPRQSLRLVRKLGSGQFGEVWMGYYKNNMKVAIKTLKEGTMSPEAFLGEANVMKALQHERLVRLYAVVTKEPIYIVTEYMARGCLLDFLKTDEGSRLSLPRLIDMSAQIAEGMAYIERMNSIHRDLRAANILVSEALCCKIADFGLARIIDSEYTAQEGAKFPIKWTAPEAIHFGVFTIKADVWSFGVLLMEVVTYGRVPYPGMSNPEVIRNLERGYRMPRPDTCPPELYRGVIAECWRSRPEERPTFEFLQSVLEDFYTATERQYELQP", "test": "cell-based", "procedure": "as §1"}, "MDA-MB-231": {"system": "MDA-MB-231", "conditions": "breast, HER2 score 0; dose 20 mg/kg/day orally, divided into two per day, 14 days", "procedure": "(§2) An increase in the tumor volume from that before administration to that on the next day of the final administration was compared to that of the control group and an anti-tumor effect was studied. In addition, the tumor volume was calculated from the following equation:\n(§3) Formula: tumor volume=longer diameter×shorter diameter×shorter diameter×(1/2)\n(§4) A ratio of the value obtained by subtracting a tumor volume on the day of the administration initiation from the tumor volume on the next day of the completion of the administration in the control group, and the value obtained by subtracting the tumor volume on the day of the administration initiation from the tumor volume on the next day of the completion of the administration was determined as a growth rate (T/C (%))."}, "[1]": {"system": "HER2/EGF-R co-expression cells (A549)", "conditions": "cultured 3 days, cells counted", "procedure": "(§5) 1) Cell growth inhibitory action; Each cell line was sown in a 24-well-multi-well plate (5×10^4 cells/well) and cultured overnight in a carbon dioxide gas incubator (5% CO2, 37° C.)."}, "[2]": {"system": "HER2 non-expression cells (Ma-1)", "conditions": "cultured 3 days, cells counted", "procedure": "as §5"}, "[3]": {"system": "HER2 expression cells (Ma-46)", "conditions": "cultured 3 days, cells counted", "procedure": "as §5"}, "[4]": {"system": "HER2 high expression human breast cancer cells BT-474", "conditions": "1 μmol/L, cultured ~5 days", "procedure": "After the culture, the culture medium was removed and a cell suspension was prepared by a trypsin treatment and the cells were fixed with 70% ethanol. The DNA of the cells was stained with propidium iodide and the DNA amount was measured by a flow cytometer. The cells with a decreased amount of DNA are apoptotic (cell death) cells."}, "[5]": {"system": "HER2 expression human non-parvicellular lung cancer A549 cells", "test": "Anti-tumor effect against HER2 expression tumor in nude mouse: A549", "format": "in vivo", "conditions": "HER2 score 1+, dose 20 mg/kg/day orally, divided into two per day, 14 days", "procedure": "Immediately after transplantation and day 7 after the transplantation, estradiol dipropionate (5 mg/kg solution, 50 μL) was intramuscularly administered to the hind leg with the aim of enhancing the survival rate of the tumor. […] HER2 high expression human gastric cancer cells 4-1ST was a in vivo subcultured tumor and seed tumor piece (ca. 50 mm^3) was subcutaneously transplanted into the nude mouse.\nas §3"}, "[6]": {"system": "HER2 high expression human breast cancer cell BT-474", "test": "Anti-tumor effect, combined use (BT-474 cancer-bearing nude mice)", "format": "in vivo, mouse", "excerpt": "Formula: Tumor volume=longer diameter×shorter diameter×shorter diameter×(1/2)"}, "[7]": {"system": "HER2 high expression human gastric cancer cells 4-1ST", "conditions": "HER2 score 3+, dose 15 mg/kg/day orally, divided into two per day, 14 days", "procedure": "(§6) Immediately after transplantation and day 7 after the transplantation, estradiol dipropionate (5 mg/kg solution, 50 μL) was intramuscularly administered to the hind leg with the aim of enhancing the survival rate of the tumor. HER2 expression human non-parvicellular lung cancer A549 cells were suspended in Matrigel solution and 5,000,000 cells were subcutaneously transplanted into the chest of female BALB/c nude mouse (6 weeks of age). HER2 expression human kidney cancer ACHN cells (2,000,000 cells) were subcutaneously transplanted into the chest of nude mouse. HER2 high expression human gastric cancer cells 4-1ST was a in vivo subcultured tumor and seed tumor piece (ca. 50 mm^3) was subcutaneously transplanted into the nude mouse.\nas §2, §3, §4"}, "[8]": {"system": "HER2 high expression human breast cancer cells BT-474", "conditions": "HER2 score 3+, dose 20 mg/kg/day orally, divided into two per day, 14 days", "procedure": "as §6, §2, §3, §4"}, "[9]": {"system": "HER2 expression human kidney cancer ACHN cells", "conditions": "renal, HER2 score 1+; dose 20 mg/kg/day orally, divided into two per day, 14 days", "procedure": "as §6, §2, §3, §4"}, "PDGFR": {"system": "PDGFR", "conditions": "read-out: IC50 (μmol/L) PDGFR; NIH3T3 cells, PDGF 20 ng/mL; compound 2 hr", "procedure": "as §1"}, "[10]": {"system": "tyrosine kinase activity other than HER2", "conditions": "read-out: IC50 value for tyrosine kinase activity other than HER2; in every case (EGFR, FGFR, PDGFR, Jak1, Src, blk)", "procedure": "as §1"}, "FGFR": {"system": "FGFR", "conditions": "read-out: IC50 (μmol/L) FGFR; NIH3T3 cells, FGF 20 ng/mL; compound 2 hr", "procedure": "as §1"}, "Akt": {"system": "Akt", "test": "cells", "conditions": "Homo sapiens, BT-474, 2 h, read-out: inhibition of activation of Akt (IC50 value)"}}}
{"smiles": "FC(F)(F)c1ccc(/C=C/c2nc(COc3ccc(CCCCn4ccnn4)cc3)co2)cc1", "note": "[Compound B4, 1-(4-{4-[(2-{(E)-2-[4-(trifluoromethyl)phenyl]ethenyl}-1,3-oxazol-4-yl)methoxy]phenyl}butyl)-1H-1,2,3-triazole]", "values": [{"measurement": "intra-tumor HER2 phosphorylation (per tumor weight), % of the control group", "setting": "HER2", "value": 13, "unit": "%"}, {"measurement": "IC50", "setting": "Jak1", "value": "> 25", "unit": "µM"}, {"measurement": "IC50", "setting": "EGFR", "value": "> 25", "unit": "µM"}, {"measurement": "IC50", "setting": "blk", "value": "> 25", "unit": "µM"}, {"measurement": "Compound B4 T/C (%), MDA-MB-231", "setting": "MDA-MB-231", "value": 87, "unit": "%"}, {"measurement": "cell growth inhibitory action on HER2/EGF-R co-expression cells (A549)", "setting": "[1]", "value": "strong cell growth inhibitory action"}, {"measurement": "cell growth inhibitory action on HER2 non-expression cells (Ma-1)", "setting": "[2]", "value": "did not show a cell growth inhibitory action"}, {"measurement": "cell growth inhibitory action on HER2 expression cells (Ma-46)", "setting": "[3]", "value": "strong cell growth inhibitory action"}, {"measurement": "cell death induction", "setting": "[4]", "value": "induced cell death"}, {"measurement": "Compound B4 T/C (%), A549", "setting": "[5]", "value": 22, "unit": "%"}, {"measurement": "growth rate T/C (%)", "setting": "[6]; compound B4 20 mg/kg/day orally, divided into two per day, 14 days, trastuzumab 10 mg/kg intraperitoneally twice a week, 2 weeks, or both", "value": "−18", "unit": "%"}, {"measurement": "cases with significant decrease in the tumor volume", "setting": "[6]; same regimens as T/C", "value": "5 cases out of 5 cases"}, {"measurement": "decrease in the tumor volume (% reduction)", "setting": "[6]; same regimens as T/C", "value": "13-30%"}, {"measurement": "Compound B4 T/C (%), 4-1ST", "setting": "[7]", "value": 4, "unit": "%"}, {"measurement": "Compound B4 T/C (%), BT-474", "setting": "[8]", "value": "−18", "unit": "%"}, {"measurement": "Compound B4 T/C (%), ACHN", "setting": "[9]", "value": "−16", "unit": "%"}, {"measurement": "IC50", "setting": "PDGFR", "value": "> 25", "unit": "µmol/L"}, {"measurement": "IC50", "setting": "[10]", "value": "> 25", "unit": "µM"}, {"measurement": "IC50", "setting": "FGFR", "value": "> 25", "unit": "µmol/L"}, {"measurement": "IC50", "setting": "Akt", "value": 0.0019, "unit": "µM"}]}
